# Laboratory results from ChEMBL document CHEMBL4038345, “Design, Synthesis, and Biological Evaluation of Novel Selenium-Containing Isocombretastatins and Phenstatins as Antitumor Agents” (J Med Chem, 2017).
# Active and inactive are the calls of the source. The calls are words filed in the database; no cut-off is given here.
# What was measured:
# A549 [1] = assay: Cell cycle arrest in human A549 cells assessed as increase in accumulation of cells at G2/M phase at 5 to 10 nM after 24 hrs by propidium iodide staining-based flow cytometry method; type: functional
# A549 [2] = assay: Induction of apoptosis in human A549 cells assessed as early apoptotic cells at 1 nM for 48 hrs by annexin V-FITC/propidium iodide staining-based flow cytometry analysis (reference value: 0.97%); type: functional
# A549 [3] = assay: Induction of apoptosis in human A549 cells assessed as live cells at 5 nM for 48 hrs by annexin V-FITC/propidium iodide staining-based flow cytometry analysis (reference value: 99.01%); type: functional
# [4] = Resistance index, ratio of IC50 for human A549/CDDP cells to IC50 for human A549 cells; type: functional
# A549 [5] = assay: Induction of apoptosis in human A549 cells assessed as necrotic cells at 1 nM for 48 hrs by annexin V-FITC/propidium iodide staining-based flow cytometry analysis (reference value: 0.02%); type: functional
# A549 [6] = assay: Induction of apoptosis in human A549 cells assessed as live cells at 1 nM for 24 hrs by annexin V-FITC/propidium iodide staining-based flow cytometry analysis (reference value: 99.15%); type: functional
# A549 [7] = assay: Induction of apoptosis in human A549 cells assessed as live cells at 1 nM for 48 hrs by annexin V-FITC/propidium iodide staining-based flow cytometry analysis (reference value: 99.01%); type: functional
# A549 [8] = assay: Induction of apoptosis in human A549 cells assessed as upregulation of Bad expression at 1 to 10 nM after 24 to 48 hrs by Western blot analysis; type: functional, cell-based
# A549 [9] = assay: Induction of apoptosis in human A549 cells assessed as late apoptotic cells at 5 nM for 48 hrs by annexin V-FITC/propidium iodide staining-based flow cytometry analysis; type: functional
# A549 [10] = assay: Induction of apoptosis in human A549 cells assessed as late apoptotic cells at 1 nM for 24 hrs by annexin V-FITC/propidium iodide staining-based flow cytometry analysis; type: functional
# A549 [11] = assay: Induction of apoptosis in human A549 cells assessed as early apoptotic cells at 10 nM for 48 hrs by annexin V-FITC/propidium iodide staining-based flow cytometry analysis (reference value: 0.97%); type: functional
# A549 [12] = assay: Disruption of mitochondrial membrane potential in human A549 cells at 5 nM after 24 hrs by JC1 staining-based flow cytometry method (reference value: 0.62%); type: functional
# A549 [13] = assay: Induction of apoptosis in human A549 cells assessed as late apoptotic cells at 1 nM for 48 hrs by annexin V-FITC/propidium iodide staining-based flow cytometry analysis; type: functional
# A549 [14] = assay: Induction of apoptosis in human A549 cells assessed as live cells at 5 nM for 24 hrs by annexin V-FITC/propidium iodide staining-based flow cytometry analysis (reference value: 99.15%); type: functional
# A549 [15] = assay: Induction of apoptosis in human A549 cells assessed as downregulation of Bcl-xl expression at 1 to 10 nM after 24 to 48 hrs by Western blot analysis; type: functional, cell-based
# A549 [16] = assay: Induction of microtubule disruption in human A549 cells at 5 to 10 nM after 8 to 24 hrs by Hoechst 33342 staining-based laser scanning confocal immunofluorescence microscopic analysis; type: cell-based
# [17] = Metabolic stability in Sprague-Dawley rat liver microsomes assessed as compound remaining after 150 mins in presence of NADPH by UV-based HPLC-MS/MS analysis; type: ADME, microsome; details: Sprague-Dawley, liver microsomes, read-out: Stability
# [18] = Metabolic stability in Sprague-Dawley rat liver microsomes assessed as compound remaining after 60 mins in presence of NADPH by UV-based HPLC-MS/MS analysis; type: ADME, microsome; details: read-out: Stability
# [19] = Resistance index, ratio of IC50 for human HepG2/DOX cells to IC50 for human HepG2 cells; type: functional
# HCT-116 = assay: cells; details: Homo sapiens, HCT-116, 48 h
# A549 [20] = assay: Induction of apoptosis in human A549 cells assessed as early apoptotic cells at 1 nM for 24 hrs by annexin V-FITC/propidium iodide staining-based flow cytometry analysis (reference value: 0.82%); type: functional
# MGC-803 = assay: Antiproliferative activity against human MGC803 cells after 48 hrs by MTT assay; details: MGC-803, 48 h
# A549 [21] = assay: Induction of apoptosis in human A549 cells assessed as necrotic cells at 10 nM for 24 hrs by annexin V-FITC/propidium iodide staining-based flow cytometry analysis (reference value: 0.03%); type: functional
# A549 [22] = assay: Induction of apoptosis in human A549 cells assessed as late apoptotic cells at 5 nM for 24 hrs by annexin V-FITC/propidium iodide staining-based flow cytometry analysis; type: functional
# A549 [23] = assay: Disruption of mitochondrial membrane potential in human A549 cells assessed as intact mitochondrial membrane at 10 nM after 24 hrs by JC1 staining-based flow cytometry method (reference value: 99.18%); type: functional
# HeLa = assay: cells; details: Homo sapiens, 48 h
# A549 [24] = assay: Induction of apoptosis in human A549 cells assessed as early apoptotic cells at 5 nM for 24 hrs by annexin V-FITC/propidium iodide staining-based flow cytometry analysis (reference value: 0.82%); type: functional
# A549 [25] = assay: Induction of apoptosis in human A549 cells assessed as late apoptotic cells at 10 nM for 24 hrs by annexin V-FITC/propidium iodide staining-based flow cytometry analysis; type: functional
# A549 [26] = assay: Induction of apoptosis in human A549 cells assessed as live cells at 10 nM for 48 hrs by annexin V-FITC/propidium iodide staining-based flow cytometry analysis (reference value: 99.01%); type: functional
# A549 [27] = assay: cells; details: Homo sapiens, A549, 48 h
# Sus scrofa = organism: Sus scrofa; assay: (§1) Inhibition of porcine brain tubulin polymerization measured every 60 seconds for 90 mins by DAPI staining-based fluorescence assay
# [28] = as §1; set-up: species or system Sus scrofa
# A549 [29] = assay: Induction of apoptosis in human A549 cells assessed as late apoptotic cells at 10 nM for 48 hrs by annexin V-FITC/propidium iodide staining-based flow cytometry analysis; type: functional
# A549 [30] = assay: Disruption of mitochondrial membrane potential in human A549 cells at 1 to 10 nM after 24 hrs by JC1/Hoechst 33342 staining-based fluorescence microscopic method; type: functional, cell-based
# HepG2 = assay: cells; details: Homo sapiens, HepG2, 48 h
# [31] = Antiproliferative activity against human HepG2/DOX cells after 48 hrs by MTT assay; type: functional, cell-based
# A549 [32] = assay: Induction of apoptosis in human A549 cells assessed as necrotic cells at 1 nM for 24 hrs by annexin V-FITC/propidium iodide staining-based flow cytometry analysis (reference value: 0.03%); type: functional
# [33] = Metabolic stability in Sprague-Dawley rat liver microsomes assessed as compound remaining after 30 mins in presence of NADPH by UV-based HPLC-MS/MS analysis; type: ADME, microsome; details: read-out: Stability
# A549 [34] = assay: Induction of apoptosis in human A549 cells assessed as early apoptotic cells at 10 nM for 24 hrs by annexin V-FITC/propidium iodide staining-based flow cytometry analysis (reference value: 0.82%); type: functional
smiles,measurement,setting,value
C=C(c1ccc(OC)c(O)c1)c1cc(OC)c(OC)c([Se]C)c1,Activity,A549 [1],70%
same,Activity,A549 [2],15.79%
same,Activity,A549 [3],49.13%
same,Ratio IC50,[4],8.8
same,Activity,A549 [5],0.86%
same,Activity,A549 [6],96.34%
same,Activity,A549 [7],80.49%
same,Activity,A549 [8],Active
same,Activity,A549 [9],24.73%
same,Activity,A549 [10],0.01%
same,Activity,A549 [11],42.57%
same,Activity,A549 [12],42.63%
same,Activity,A549 [13],2.86%
same,Activity,A549 [14],64.43%
same,Activity,A549 [15],Active
same,Activity,A549 [16],Active
same,remaining at 2.5 h,[17],25.8%
same,remaining at 1 h,[18],62.3%
same,Ratio IC50,[19],6.8
same,IC50,HCT-116,12 nM
same,Activity,A549 [20],3.63%
same,IC50,MGC-803,9 nM
same,Activity,A549 [21],0.08%
same,Activity,A549 [22],2.52%
same,Activity,A549 [23],9.14%
same,IC50,HeLa,3 nM
same,Activity,A549 [24],31.36%
same,Activity,A549 [25],1.45%
same,Activity,A549 [26],23.45%
same,IC50,A549 [27],3.9 nM
same,inhibition,Sus scrofa,Dose-dependent effect
same,IC50,[28],1380 nM
same,Activity,A549 [29],20.44%
same,Activity,A549 [30],Active
same,IC50,HepG2,3 nM
same,IC50,[31],20.3 nM
same,Activity,A549 [32],0.2%
same,remaining at 0.5 h,[33],81.1%
same,Activity,A549 [34],49.48%
